Reference: ChEMBL document CHEMBL2331098, “Unprecedented polyketides from a marine sponge-associated Stachylidium sp” (J Nat Prod, 2013)
Calls of active or inactive are those of the source.

Tests used:
[1] = species on record: Homo sapiens; experiment: Displacement of [3H]DTG from sigma2 receptor (unknown origin) at 10 uM
[2] = target: Sigma non-opioid intracellular receptor 1 (Homo sapiens) (UniProt Q99720); experiment: Displacement of [3H]pentazocine from sigma1 receptor (unknown origin) at 10 uM
[3] = target: Sodium-dependent serotonin transporter (Homo sapiens) (UniProt P31645); experiment: Displacement of [3H]citalopram from SERT (unknown origin) at 10 uM
[4] = target: Muscarinic acetylcholine receptor M5 (Homo sapiens) (UniProt P08912); experiment: Displacement of [3H]QNB from M5 receptor (unknown origin) at 10 uM
Muscarinic acetylcholine receptor M5 (Homo sapiens), sequence (P08912 whole entry): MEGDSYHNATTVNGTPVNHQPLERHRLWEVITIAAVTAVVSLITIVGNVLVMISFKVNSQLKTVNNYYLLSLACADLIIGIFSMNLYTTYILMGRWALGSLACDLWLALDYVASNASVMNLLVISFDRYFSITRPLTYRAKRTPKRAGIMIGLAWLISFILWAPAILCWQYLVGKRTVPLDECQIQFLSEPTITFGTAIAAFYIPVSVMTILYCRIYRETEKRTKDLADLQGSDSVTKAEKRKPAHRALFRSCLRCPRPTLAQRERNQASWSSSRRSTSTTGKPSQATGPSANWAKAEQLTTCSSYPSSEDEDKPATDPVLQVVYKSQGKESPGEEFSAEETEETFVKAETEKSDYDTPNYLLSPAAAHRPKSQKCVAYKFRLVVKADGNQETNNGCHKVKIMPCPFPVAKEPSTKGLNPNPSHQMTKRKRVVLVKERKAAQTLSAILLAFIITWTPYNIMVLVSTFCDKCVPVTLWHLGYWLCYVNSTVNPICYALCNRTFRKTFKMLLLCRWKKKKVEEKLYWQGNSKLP

[5] = target: Muscarinic acetylcholine receptor M4 (Homo sapiens) (UniProt P08173); experiment: Displacement of [3H]QNB from M4 receptor (unknown origin) at 10 uM
[6] = target: Muscarinic acetylcholine receptor M3 (Homo sapiens) (UniProt P20309); experiment: Displacement of [3H]QNB from M3 receptor (unknown origin) at 10 uM
Muscarinic acetylcholine receptor M3 (Homo sapiens), sequence (P20309 whole entry, looked up): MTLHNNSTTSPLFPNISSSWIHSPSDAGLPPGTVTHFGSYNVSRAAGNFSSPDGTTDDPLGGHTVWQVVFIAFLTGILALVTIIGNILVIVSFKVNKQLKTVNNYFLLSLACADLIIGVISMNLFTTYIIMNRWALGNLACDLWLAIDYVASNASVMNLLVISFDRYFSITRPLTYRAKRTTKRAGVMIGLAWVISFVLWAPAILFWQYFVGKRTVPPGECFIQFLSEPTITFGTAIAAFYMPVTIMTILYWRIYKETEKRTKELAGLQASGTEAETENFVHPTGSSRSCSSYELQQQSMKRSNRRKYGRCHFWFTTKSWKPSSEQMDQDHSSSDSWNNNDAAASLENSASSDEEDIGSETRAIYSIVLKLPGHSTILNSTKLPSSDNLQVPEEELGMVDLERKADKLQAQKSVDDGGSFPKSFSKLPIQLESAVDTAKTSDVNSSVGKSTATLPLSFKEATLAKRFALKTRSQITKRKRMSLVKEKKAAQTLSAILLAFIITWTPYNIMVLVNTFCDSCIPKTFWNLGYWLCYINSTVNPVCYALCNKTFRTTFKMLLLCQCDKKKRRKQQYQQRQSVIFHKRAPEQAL

[7] = target: Muscarinic acetylcholine receptor M2 (Homo sapiens) (UniProt P08172); experiment: Displacement of [3H]QNB from M2 receptor (unknown origin) at 10 uM
[8] = target: Muscarinic acetylcholine receptor M1 (Homo sapiens) (UniProt P11229); experiment: Displacement of [3H]QNB from M1 receptor (unknown origin) at 10 uM
[9] = target: Histamine H4 receptor (Homo sapiens) (UniProt Q9H3N8); experiment: Displacement of [3H]histamine from H4 receptor (unknown origin) at 10 uM
[10] = target: Histamine H3 receptor (Homo sapiens) (UniProt Q9Y5N1); experiment: Displacement of [3H]alpha-methylhistamine from H3 receptor (unknown origin) at 10 uM
[11] = target: Histamine H2 receptor (Homo sapiens) (UniProt P25021); experiment: Displacement of [3H]tiotidine from H2 receptor (unknown origin) at 10 uM
Histamine H2 receptor (Homo sapiens), sequence (P25021 whole entry): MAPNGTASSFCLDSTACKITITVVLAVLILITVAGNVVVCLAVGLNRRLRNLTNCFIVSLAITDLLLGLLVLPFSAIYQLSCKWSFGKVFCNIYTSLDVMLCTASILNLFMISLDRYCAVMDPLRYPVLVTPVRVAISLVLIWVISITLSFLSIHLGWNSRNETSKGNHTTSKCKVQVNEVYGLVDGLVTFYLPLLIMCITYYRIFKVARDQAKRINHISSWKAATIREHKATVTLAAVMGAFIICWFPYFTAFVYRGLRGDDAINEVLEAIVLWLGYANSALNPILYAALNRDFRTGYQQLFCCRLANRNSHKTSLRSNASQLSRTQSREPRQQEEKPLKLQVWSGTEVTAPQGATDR

[12] = target: Histamine H1 receptor (Homo sapiens) (UniProt P35367); experiment: Displacement of [3H]pyrilamine from H1 receptor (unknown origin) at 10 uM
Histamine H1 receptor (Homo sapiens), sequence (P35367 whole entry): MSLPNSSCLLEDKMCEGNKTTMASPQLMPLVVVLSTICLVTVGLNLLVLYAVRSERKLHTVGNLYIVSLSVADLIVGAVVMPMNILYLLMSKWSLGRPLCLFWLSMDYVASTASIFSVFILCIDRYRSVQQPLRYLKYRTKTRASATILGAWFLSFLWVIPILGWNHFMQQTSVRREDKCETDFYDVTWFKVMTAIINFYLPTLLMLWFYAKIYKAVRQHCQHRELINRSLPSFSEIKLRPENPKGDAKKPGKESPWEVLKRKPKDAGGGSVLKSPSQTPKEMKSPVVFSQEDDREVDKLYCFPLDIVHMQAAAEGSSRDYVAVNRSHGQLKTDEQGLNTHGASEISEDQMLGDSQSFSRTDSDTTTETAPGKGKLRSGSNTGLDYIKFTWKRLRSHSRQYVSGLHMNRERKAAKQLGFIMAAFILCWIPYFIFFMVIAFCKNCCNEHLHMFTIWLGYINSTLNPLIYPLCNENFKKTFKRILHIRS

[13] = target: Mu-type opioid receptor (Homo sapiens) (UniProt P35372); experiment: Displacement of [3H]DAMGO from mu opioid receptor (unknown origin) at 10 uM
[14] = target: GABA-A receptor; agonist GABA site (Homo sapiens) (UniProt P14867+P47870+P28472+P48169+P34903+P18505+P47869+P31644+Q16445); experiment: Displacement of [3H]muscimol from GABAA receptor (unknown origin) at 10 uM; format: protein-complex assay
[15] = target: Kappa-type opioid receptor (Homo sapiens) (UniProt P41145); experiment: Displacement of [3H]U69593 from kappa opioid receptor (unknown origin) at 10 uM
Kappa-type opioid receptor (Homo sapiens), sequence (P41145 whole entry): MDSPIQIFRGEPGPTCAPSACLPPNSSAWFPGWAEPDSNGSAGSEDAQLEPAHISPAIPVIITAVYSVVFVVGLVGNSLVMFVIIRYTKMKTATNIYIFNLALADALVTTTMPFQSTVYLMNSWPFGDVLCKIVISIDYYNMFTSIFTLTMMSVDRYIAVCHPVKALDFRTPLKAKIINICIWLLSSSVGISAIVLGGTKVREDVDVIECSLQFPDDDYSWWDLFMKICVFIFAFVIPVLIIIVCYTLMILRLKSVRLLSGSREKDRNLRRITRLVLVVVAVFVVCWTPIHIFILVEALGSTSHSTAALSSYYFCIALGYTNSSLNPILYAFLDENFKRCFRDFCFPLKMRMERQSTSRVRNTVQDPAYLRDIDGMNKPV

[16] = target: Delta-type opioid receptor (Homo sapiens) (UniProt P41143); experiment: Displacement of [3H]DADLE from delta opioid receptor (unknown origin) at 10 uM
Delta-type opioid receptor (Homo sapiens), sequence (P41143 whole entry): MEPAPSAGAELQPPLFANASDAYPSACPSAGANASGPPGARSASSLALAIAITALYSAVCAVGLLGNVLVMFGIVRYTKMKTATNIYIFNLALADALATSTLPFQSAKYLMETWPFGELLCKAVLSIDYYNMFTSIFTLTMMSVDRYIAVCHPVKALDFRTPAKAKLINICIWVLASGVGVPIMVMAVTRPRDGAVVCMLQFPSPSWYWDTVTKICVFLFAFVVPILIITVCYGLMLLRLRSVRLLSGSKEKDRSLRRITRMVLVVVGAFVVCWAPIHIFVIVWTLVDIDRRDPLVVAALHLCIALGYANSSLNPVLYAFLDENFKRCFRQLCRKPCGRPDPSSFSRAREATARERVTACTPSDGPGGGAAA

[17] = target: Sodium-dependent dopamine transporter (Homo sapiens) (UniProt Q01959); experiment: Displacement of [3H]WIN35428 from DAT (unknown origin) at 10 uM
[18] = target: D(1B) dopamine receptor (Homo sapiens) (UniProt P21918); experiment: Displacement of [3H][…] from D5 receptor (unknown origin) at 10 uM
[19] = target: D(4) dopamine receptor (Homo sapiens) (UniProt P21917); experiment: Displacement of [3H]N-methylspiperone from D4 receptor (unknown origin) at 10 uM
[20] = target: D(3) dopamine receptor (Homo sapiens) (UniProt P35462); experiment: Displacement of [3H]N-methylspiperone from D3 receptor (unknown origin) at 10 uM
D(3) dopamine receptor (Homo sapiens), sequence (P35462 whole entry): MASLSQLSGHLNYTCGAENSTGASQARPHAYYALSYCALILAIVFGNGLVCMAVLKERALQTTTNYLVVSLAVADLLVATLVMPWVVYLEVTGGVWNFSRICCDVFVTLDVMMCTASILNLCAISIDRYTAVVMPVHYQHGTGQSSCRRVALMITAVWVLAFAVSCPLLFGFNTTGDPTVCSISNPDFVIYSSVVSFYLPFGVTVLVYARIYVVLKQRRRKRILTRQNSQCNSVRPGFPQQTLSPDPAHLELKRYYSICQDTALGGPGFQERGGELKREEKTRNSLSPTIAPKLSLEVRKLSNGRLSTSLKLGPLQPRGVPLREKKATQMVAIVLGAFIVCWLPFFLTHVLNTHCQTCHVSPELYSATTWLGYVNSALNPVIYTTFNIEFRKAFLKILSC

[21] = target: D(2) dopamine receptor (Homo sapiens) (UniProt P14416); experiment: Displacement of [3H]N-methylspiperone from D2 receptor (unknown origin) at 10 uM
D(2) dopamine receptor (Homo sapiens), sequence (P14416 whole entry): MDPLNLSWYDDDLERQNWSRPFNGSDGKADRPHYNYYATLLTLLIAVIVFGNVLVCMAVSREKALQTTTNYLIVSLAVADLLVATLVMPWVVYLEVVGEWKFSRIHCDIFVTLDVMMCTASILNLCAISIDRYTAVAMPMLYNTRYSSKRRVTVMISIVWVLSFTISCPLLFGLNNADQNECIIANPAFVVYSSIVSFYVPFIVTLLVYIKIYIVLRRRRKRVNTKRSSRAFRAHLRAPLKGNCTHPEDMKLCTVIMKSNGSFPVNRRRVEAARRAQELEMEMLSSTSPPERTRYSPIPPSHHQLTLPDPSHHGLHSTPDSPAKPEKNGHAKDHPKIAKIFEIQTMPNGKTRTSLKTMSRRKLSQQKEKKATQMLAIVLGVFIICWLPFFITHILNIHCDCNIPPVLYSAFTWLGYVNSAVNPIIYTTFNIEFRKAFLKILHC

[22] = target: D(1A) dopamine receptor (Homo sapiens) (UniProt P21728); experiment: Displacement of [3H][…] from D1 receptor (unknown origin) at 10 uM
[23] = species on record: Rattus norvegicus; experiment: Displacement of [3H]flunitrazepam from rat brain BZP receptor (unknown origin) at 10 uM
[24] = target: Beta-3 adrenergic receptor (Homo sapiens) (UniProt P13945); experiment: Displacement of [125I]iodopindolol from beta3 receptor (unknown origin) at 10 uM
[25] = target: Beta-2 adrenergic receptor (Homo sapiens) (UniProt P07550); experiment: Displacement of [125I]iodopindolol from beta2 receptor (unknown origin) at 10 uM
[26] = target: Beta-1 adrenergic receptor (Homo sapiens) (UniProt P08588); experiment: Displacement of [125I]iodopindolol from beta1 receptor (unknown origin) at 10 uM
[27] = target: Alpha-2C adrenergic receptor (Homo sapiens) (UniProt P18825); experiment: Displacement of [3H]clonidine from alpha2C receptor (unknown origin) at 10 uM
[28] = target: Alpha-2A adrenergic receptor (Homo sapiens) (UniProt P08913); experiment: Displacement of [3H]clonidine from alpha2A receptor (unknown origin) at 10 uM
[29] = target: Alpha-2B adrenergic receptor (Homo sapiens) (UniProt P18089); experiment: Displacement of [3H]clonidine from alpha2B receptor (unknown origin) at 10 uM
[30] = target: Alpha-1D adrenergic receptor (Homo sapiens) (UniProt P25100); experiment: Displacement of radiolabeled ligand from alpha1D receptor (unknown origin) at 10 uM
[31] = target: Alpha-1B adrenergic receptor (Homo sapiens) (UniProt P35368); experiment: Displacement of [3H]prazosin from alpha1B receptor (unknown origin) at 10 uM
[32] = target: Alpha-1A adrenergic receptor (Homo sapiens) (UniProt P35348); experiment: Displacement of [3H]prazosin from alpha1A receptor (unknown origin) at 10 uM
[33] = target: 5-hydroxytryptamine receptor 6 (Homo sapiens) (UniProt P50406); experiment: Displacement of [3H]LSD from 5-HT6 receptor (unknown origin) at 10 uM
[34] = target: 5-hydroxytryptamine receptor 7 (Homo sapiens) (UniProt P34969); experiment: Displacement of [3H]LSD from 5-HT7 receptor (unknown origin) at 10 uM
[35] = target: 5-hydroxytryptamine receptor 5A (Homo sapiens) (UniProt P47898); experiment: Displacement of [3H]LSD from 5-HT5A receptor (unknown origin) at 10 uM
[36] = target: 5-hydroxytryptamine receptor 3A (Homo sapiens) (UniProt P46098); experiment: Displacement of [3H]LY278584 from 5-HT3 receptor (unknown origin) at 10 uM
[37] = target: 5-hydroxytryptamine receptor 2C (Homo sapiens) (UniProt P28335); experiment: Displacement of [3H]mesulergine from 5-HT2C receptor (unknown origin) at 10 uM
5-hydroxytryptamine receptor 2C (Homo sapiens), sequence (P28335 whole entry): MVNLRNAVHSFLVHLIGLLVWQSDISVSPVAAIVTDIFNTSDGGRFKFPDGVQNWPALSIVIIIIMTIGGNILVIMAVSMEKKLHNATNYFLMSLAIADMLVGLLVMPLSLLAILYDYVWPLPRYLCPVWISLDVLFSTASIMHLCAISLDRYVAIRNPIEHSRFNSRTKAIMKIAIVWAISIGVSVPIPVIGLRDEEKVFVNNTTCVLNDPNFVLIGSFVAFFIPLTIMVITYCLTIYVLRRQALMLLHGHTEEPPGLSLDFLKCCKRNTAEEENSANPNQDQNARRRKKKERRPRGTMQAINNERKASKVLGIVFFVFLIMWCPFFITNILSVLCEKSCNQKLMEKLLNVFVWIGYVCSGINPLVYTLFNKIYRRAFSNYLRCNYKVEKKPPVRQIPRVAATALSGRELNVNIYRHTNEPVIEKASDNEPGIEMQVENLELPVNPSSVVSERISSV

[38] = target: 5-hydroxytryptamine receptor 2B (Homo sapiens) (UniProt P41595); experiment: Displacement of [3H]LSD from 5-HT2B receptor (unknown origin) at 10 uM
[39] = target: 5-hydroxytryptamine receptor 1E (Homo sapiens) (UniProt P28566); experiment: Displacement of [3H]5-HT from 5-HT1E receptor (unknown origin) at 10 uM
5-hydroxytryptamine receptor 1E (Homo sapiens), sequence (P28566 whole entry): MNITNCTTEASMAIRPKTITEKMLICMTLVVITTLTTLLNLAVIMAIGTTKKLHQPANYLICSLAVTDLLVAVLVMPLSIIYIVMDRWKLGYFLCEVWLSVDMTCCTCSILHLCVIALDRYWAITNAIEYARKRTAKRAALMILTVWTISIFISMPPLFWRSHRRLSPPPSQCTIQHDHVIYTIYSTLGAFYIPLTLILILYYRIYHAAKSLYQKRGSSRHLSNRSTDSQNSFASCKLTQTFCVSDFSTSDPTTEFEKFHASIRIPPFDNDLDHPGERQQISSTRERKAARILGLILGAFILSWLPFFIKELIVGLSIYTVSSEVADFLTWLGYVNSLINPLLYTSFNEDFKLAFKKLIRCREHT

[40] = target: 5-hydroxytryptamine receptor 2A (Homo sapiens) (UniProt P28223); experiment: Displacement of [3H]ketanserin from 5-HT2A receptor (unknown origin) at 10 uM
5-hydroxytryptamine receptor 2A (Homo sapiens), sequence (P28223 whole entry): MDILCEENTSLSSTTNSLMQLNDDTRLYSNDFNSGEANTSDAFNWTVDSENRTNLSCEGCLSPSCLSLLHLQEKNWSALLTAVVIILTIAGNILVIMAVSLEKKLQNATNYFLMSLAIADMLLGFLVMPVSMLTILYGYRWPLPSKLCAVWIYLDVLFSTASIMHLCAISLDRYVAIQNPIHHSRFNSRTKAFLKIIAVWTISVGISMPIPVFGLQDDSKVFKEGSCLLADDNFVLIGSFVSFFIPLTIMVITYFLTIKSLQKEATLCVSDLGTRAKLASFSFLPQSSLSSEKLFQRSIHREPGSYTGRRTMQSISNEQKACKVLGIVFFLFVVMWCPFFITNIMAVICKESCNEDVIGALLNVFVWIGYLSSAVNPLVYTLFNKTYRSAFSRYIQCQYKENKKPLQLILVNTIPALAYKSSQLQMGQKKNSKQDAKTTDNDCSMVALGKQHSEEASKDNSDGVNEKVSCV

[41] = target: 5-hydroxytryptamine receptor 1D (Homo sapiens) (UniProt P28221); experiment: Displacement of [3H][…] from 5-HT1D receptor (unknown origin) at 10 uM
[42] = target: 5-hydroxytryptamine receptor 1B (Homo sapiens) (UniProt P28222); experiment: Displacement of [3H][…] from 5-HT1B receptor (unknown origin) at 10 uM
[43] = target: 5-hydroxytryptamine receptor 1A (Homo sapiens) (UniProt P08908); experiment: Displacement of [3H]8-OH-DPAT from 5-HT1A receptor (unknown origin) at 10 uM
[44] = tested on: [Chlorella] fusca; experiment: Antimicrobial activity against Chlorella fusca; format: functional, organism-based; details: Scenedesmus fuscus
[45] = tested on: Microbotryum violaceum; experiment: Antimicrobial activity against Microbotryum violaceum; format: functional, organism-based
[46] = tested on: Aspergillus ruber; experiment: Antimicrobial activity against Eurotium rubrum; format: functional, organism-based
[47] = tested on: Mycotypha microspora; experiment: Antimicrobial activity against Mycotypha microspora; format: functional, organism-based
[48] = tested on: Priestia megaterium; experiment: Antimicrobial activity against Bacillus megaterium; format: functional, organism-based
[49] = tested on: Escherichia coli; experiment: Antimicrobial activity against Escherichia coli; format: functional, organism-based
[50] = target: Sodium-dependent noradrenaline transporter (Homo sapiens) (UniProt P23975); experiment: Displacement of [3H]nisoxetine from NET (unknown origin) at 10 uM

COCc1c(C(C)O)cc(O)c(C)c1OC (stereo not given)
inactive: inhibition [1] | inhibition [2] | inhibition [3] | inhibition [4] | inhibition [5] | inhibition [6] | inhibition [7] | inhibition [8] | inhibition [9] | inhibition [10] | inhibition [11] | inhibition [12] | inhibition [13] | inhibition [14] | inhibition [15] | inhibition [16] | inhibition [17] | inhibition [18] | inhibition [19] | inhibition [20] | inhibition [21] | inhibition [22] | inhibition [23] | inhibition [24] | inhibition [25] | inhibition [26] | inhibition [27] | inhibition [28] | inhibition [29] | inhibition [30] | inhibition [31] | inhibition [32] | inhibition [33] | inhibition [34] | inhibition [35] | inhibition [36] | inhibition [37] | inhibition [38] | inhibition [39] | inhibition [40] | inhibition [41] | inhibition [42] | inhibition [43] | Activity [44] | Activity [45] | Activity [46] | Activity [47] | Activity [48] | Activity [49] | inhibition [50]
